{
  "source": "paper PMC5218480",
  "about": "(PLoS ONE, 2017)",
  "test_system": "MV-4-11 cells",
  "assay": "Gene expression microarray analysis (Affymetrix PrimeView) and GSEA",
  "assay_type": "cell-based, human",
  "design": "RFU PODN (11730768_x_at) / Fold change /veh PODN (11730768_x_at) / RFU LINC00158 (11744669_a_at) / Fold change /veh LINC00158 (11744669_a_at) / RFU DUSP10 (11751237_a_at) / Fold change /veh DUSP10 (11751237_a_at) / RFU ID3 (11757404_x_at) / Fold change /veh ID3 (11757404_x_at) / RFU PLEKHG5 (11737974_s_at) / Fold change /veh PLEKHG5 (11737974_s_at) / RFU LRRC4B (11730491_at) / Fold change /veh LRRC4B (11730491_at) / RFU GIMAP4 (11747438_a_at) / Fold change /veh GIMAP4 (11747438_a_at) / RFU KRT8 (11758183_x_at) / Fold change /veh KRT8 (11758183_x_at) / RFU CNN1 (11734310_a_at) / Fold change /veh CNN1 (11734310_a_at) / RFU VPS37D (11726825_at) / Fold change /veh VPS37D (11726825_at) / RFU C10orf10 (11716522_x_at) / Fold change /veh C10orf10 (11716522_x_at) / RFU KIR2DL2 /// KIR2DL4 /// KIR2DL5A /// KIR2DL5B /// KIR2DS1 /// KIR2DS2 /// KIR2DS3 /// KIR2DS4 /// KIR3DL3 /// KIR3DL3 /// KIR3DS1 (11738374_at) / Fold change /veh KIR2DL2 /// KIR2DL4 /// KIR2DL5A /// KIR2DL5B /// KIR2DS1 /// KIR2DS2 /// KIR2DS3 /// KIR2DS4 /// KIR3DL3 /// KIR3DL3 /// KIR3DS1 (11738374_at) / RFU C1QL1 (11718748_at) / Fold change /veh C1QL1 (11718748_at) / RFU TMPRSS4 (11747572_a_at) / Fold change /veh TMPRSS4 (11747572_a_at) / RFU HAMP (11756126_x_at) / Fold change /veh HAMP (11756126_x_at) / RFU RNFT2 (11725882_a_at) / Fold change /veh RNFT2 (11725882_a_at) / RFU NR4A2 (11747474_a_at) / Fold change /veh NR4A2 (11747474_a_at) / RFU ABCC12 (11746883_a_at) / Fold change /veh ABCC12 (11746883_a_at) / RFU TMEM136 (11760407_x_at) / Fold change /veh TMEM136 (11760407_x_at) / RFU CLDN22 /// WWC2 (11732394_at) / Fold change /veh CLDN22 /// WWC2 (11732394_at) / RFU HLA-DPB1 (11760878_x_at) / Fold change /veh HLA-DPB1 (11760878_x_at) / RFU SPINT1 (11716480_a_at) / Fold change /veh SPINT1 (11716480_a_at) / RFU GAP43 (11754022_s_at) / Fold change /veh GAP43 (11754022_s_at) / RFU A4GNT (11735810_at) / Fold change /veh A4GNT (11735810_at) / RFU PRB3 (11715151_x_at) / Fold change /veh PRB3 (11715151_x_at) / RFU TUBB4B (11761932_at) / Fold change /veh TUBB4B (11761932_at) / RFU CAPN14 (11732068_a_at) / Fold change /veh CAPN14 (11732068_a_at) / RFU TMCC2 (11721928_a_at) / Fold change /veh TMCC2 (11721928_a_at) / RFU IRGQ (11745062_a_at) / Fold change /veh IRGQ (11745062_a_at) / RFU FAM174B (11720279_a_at) / Fold change /veh FAM174B (11720279_a_at) / RFU TMPRSS4 (11748680_a_at) / Fold change /veh TMPRSS4 (11748680_a_at) / RFU FAM212B (11763350_a_at) / Fold change /veh FAM212B (11763350_a_at) / RFU PLEKHG5 (11743358_a_at) / Fold change /veh PLEKHG5 (11743358_a_at) / RFU ZSCAN30 (11745921_a_at) / Fold change /veh ZSCAN30 (11745921_a_at) / RFU CMKLR1 (11741424_a_at) / Fold change /veh CMKLR1 (11741424_a_at) / RFU LOC101060620 /// MAPK8IP1 (11723275_at) / Fold change /veh LOC101060620 /// MAPK8IP1 (11723275_at) / RFU SPTSSB (11747773_x_at) / Fold change /veh SPTSSB (11747773_x_at) / RFU PRSS12 (11739890_at) / Fold change /veh PRSS12 (11739890_at) / RFU BIN1 (11741810_x_at) / Fold change /veh BIN1 (11741810_x_at) / RFU WNT11 (11732464_a_at) / Fold change /veh WNT11 (11732464_a_at) / RFU C10orf10 (11716521_a_at) / Fold change /veh C10orf10 (11716521_a_at) / RFU C5orf56 (11738089_at) / Fold change /veh C5orf56 (11738089_at) / RFU CYB561 (11721691_x_at) / Fold change /veh CYB561 (11721691_x_at) / RFU ANKRD19P (11752326_a_at) / Fold change /veh ANKRD19P (11752326_a_at) / RFU OR2T12 /// OR2T33 /// OR2T8 (11738714_s_at) / Fold change /veh OR2T12 /// OR2T33 /// OR2T8 (11738714_s_at) / RFU VCAN (11748164_a_at) / Fold change /veh VCAN (11748164_a_at) / RFU JSRP1 (11732532_at) / Fold change /veh JSRP1 (11732532_at) / RFU KRTAP10-11 (11738290_x_at) / Fold change /veh KRTAP10-11 (11738290_x_at) / RFU MYO3A (11730013_a_at) / Fold change /veh MYO3A (11730013_a_at) / RFU EBF3 (11725865_a_at) / Fold change /veh EBF3 (11725865_a_at) / RFU CAMK2N1 (11719241_x_at) / Fold change /veh CAMK2N1 (11719241_x_at) / RFU C5orf56 (11738088_a_at) / Fold change /veh C5orf56 (11738088_a_at) / RFU OLFML3 (11715873_a_at) / Fold change /veh OLFML3 (11715873_a_at) / RFU LOC100653217 /// NTM (11731650_a_at) / Fold change /veh LOC100653217 /// NTM (11731650_a_at) / RFU MAPK11 (11762145_a_at) / Fold change /veh MAPK11 (11762145_a_at) / RFU FIZ1 (11724087_x_at) / Fold change /veh FIZ1 (11724087_x_at) / RFU OASL (11726364_x_at) / Fold change /veh OASL (11726364_x_at) / RFU SOX15 (11748057_x_at) / Fold change /veh SOX15 (11748057_x_at) / RFU CD79A (11719716_a_at) / Fold change /veh CD79A (11719716_a_at) / RFU HIST1H1D (11736915_at) / Fold change /veh HIST1H1D (11736915_at) / RFU CASKIN2 (11723855_a_at) / Fold change /veh CASKIN2 (11723855_a_at) / RFU LOC730098 (11760151_x_at) / Fold change /veh LOC730098 (11760151_x_at) / RFU OR4N2 (11742367_at) / Fold change /veh OR4N2 (11742367_at) / RFU PRRT2 (11749266_a_at) / Fold change /veh PRRT2 (11749266_a_at) / RFU SNX32 (11753110_a_at) / Fold change /veh SNX32 (11753110_a_at) / RFU CDHR5 (11726645_a_at) / Fold change /veh CDHR5 (11726645_a_at) / RFU RCAN1 (11760418_a_at) / Fold change /veh RCAN1 (11760418_a_at) / RFU FAM167A (11723789_a_at) / Fold change /veh FAM167A (11723789_a_at) / RFU FAM26E (11764081_at) / Fold change /veh FAM26E (11764081_at) / RFU ISYNA1 (11749810_s_at) / Fold change /veh ISYNA1 (11749810_s_at) / RFU ACY1 (11761880_at) / Fold change /veh ACY1 (11761880_at) / RFU 11764098_at / Fold change /veh 11764098_at / RFU SAMD14 (11745864_x_at) / Fold change /veh SAMD14 (11745864_x_at) / RFU NPB (11741838_a_at) / Fold change /veh NPB (11741838_a_at) / RFU TMPRSS6 (11731388_a_at) / Fold change /veh TMPRSS6 (11731388_a_at) / RFU KRTAP10-2 (11738614_at) / Fold change /veh KRTAP10-2 (11738614_at) / RFU ARHGAP8 /// PRR5-ARHGAP8 (11727945_x_at) / Fold change /veh ARHGAP8 /// PRR5-ARHGAP8 (11727945_x_at) / RFU KRTAP5-7 /// NADSYN1 (11734609_at) / Fold change /veh KRTAP5-7 /// NADSYN1 (11734609_at) / RFU RASL12 (11751679_a_at) / Fold change /veh RASL12 (11751679_a_at) / RFU CDKN2B (11736163_a_at) / Fold change /veh CDKN2B (11736163_a_at) / RFU PRF1 (11729649_at) / Fold change /veh PRF1 (11729649_at) / RFU, ZNF638 /// ZNF638-IT1 / Fold change vs veh, ZNF638 /// ZNF638-IT1 / RFU, PANK3 / Fold change vs veh, PANK3 / RFU, SH3YL1 / Fold change vs veh, SH3YL1 / RFU, ZEB2 / Fold change vs veh, ZEB2 / RFU, NRIP1 / Fold change vs veh, NRIP1 / RFU, PTTG1IP / Fold change vs veh, PTTG1IP / RFU, CAPN2 / Fold change vs veh, CAPN2 / RFU, MED14 / Fold change vs veh, MED14 / RFU, SNORA58 / Fold change vs veh, SNORA58 / RFU, C1orf63 / Fold change vs veh, C1orf63 / RFU, LRRFIP1 / Fold change vs veh, LRRFIP1 / RFU, NDUFAF7 / Fold change vs veh, NDUFAF7 / RFU, SLC12A2 / Fold change vs veh, SLC12A2 / RFU, IBTK / Fold change vs veh, IBTK / RFU, ESF1 / Fold change vs veh, ESF1 / Fold change vs veh, TMEM50B / RFU, TAOK1 / Fold change vs veh, TAOK1 / RFU, ACBD3 / Fold change vs veh, ACBD3 / RFU, TMA16 / Fold change vs veh, TMA16 / RFU, RWDD3 / Fold change vs veh, RWDD3 / RFU, BCAT1 / Fold change vs veh, BCAT1 / RFU, EDEM3 / Fold change vs veh, EDEM3 / RFU, TMEM33 / Fold change vs veh, TMEM33 / RFU, WDR75 / Fold change vs veh, WDR75 / RFU, AHCTF1 / Fold change vs veh, AHCTF1 / RFU, TFRC / Fold change vs veh, TFRC / RFU, ZDHHC17 / Fold change vs veh, ZDHHC17 / RFU, NOM1 / Fold change vs veh, NOM1 / RFU, ARL8B / Fold change vs veh, ARL8B / RFU, ZBTB11 / Fold change vs veh, ZBTB11 / RFU, TAMM41 / Fold change vs veh, TAMM41 / RFU, KIAA1704 /// LOC100996395 / Fold change vs veh, KIAA1704 /// LOC100996395 / RFU, ING1 / Fold change vs veh, ING1 / RFU, TRMT61B / Fold change vs veh, TRMT61B / RFU, FUBP3 / Fold change vs veh, FUBP3 / RFU, TP53 / Fold change vs veh, TP53 / RFU, TNKS2 / Fold change vs veh, TNKS2 / RFU, ZFP14 / Fold change vs veh, ZFP14 / RFU, ACTR2 / Fold change vs veh, ACTR2 / RFU, PPP3R1 / Fold change vs veh, PPP3R1 / RFU, PIK3R1 / Fold change vs veh, PIK3R1 / RFU, HNRNPA1 / Fold change vs veh, HNRNPA1 / RFU, RNF170 / Fold change vs veh, RNF170 / RFU, ZNF28 / Fold change vs veh, ZNF28 / RFU, RNGTT / Fold change vs veh, RNGTT / RFU, OGT / Fold change vs veh, OGT / RFU, BRD1 / Fold change vs veh, BRD1 / RFU, MARS / Fold change vs veh, MARS / RFU, ZNF655 / Fold change vs veh, ZNF655 / RFU, FAHD1 / Fold change vs veh, FAHD1 / RFU, BDP1 / Fold change vs veh, BDP1 / RFU, LRRCC1 / Fold change vs veh, LRRCC1 / RFU, ARID1A / Fold change vs veh, ARID1A / RFU, ZNF146 / Fold change vs veh, ZNF146 / RFU, ZNF330 / Fold change vs veh, ZNF330 / RFU, GPN3 / Fold change vs veh, GPN3 / RFU, C9orf123 / Fold change vs veh, C9orf123 / RFU, N4BP2L2 / Fold change vs veh, N4BP2L2 / RFU, ARFIP1 / Fold change vs veh, ARFIP1 / RFU, FAM179B / Fold change vs veh, FAM179B / RFU, BCL10 / Fold change vs veh, BCL10 / RFU, UHRF1BP1L / Fold change vs veh, UHRF1BP1L / RFU, BET1 / Fold change vs veh, BET1 / RFU, CNOT2 / Fold change vs veh, CNOT2 / RFU, ZNF268 / Fold change vs veh, ZNF268 / Fold change vs veh, ZNF507 / RFU, DGCR2 / Fold change vs veh, DGCR2 / RFU, WDSUB1 / Fold change vs veh, WDSUB1 / Fold change vs veh, HSP90B1 /// MIR3652 / RFU, ADSS / Fold change vs veh, ADSS / RFU, GK / Fold change vs veh, GK / RFU, ZNF148 / Fold change vs veh, ZNF148 / RFU, TAF9 / Fold change vs veh, TAF9 / RFU, SLC1A5 / Fold change vs veh, SLC1A5 / RFU, SLMO2 / Fold change vs veh, SLMO2 / RFU, ABCC4 / Fold change vs veh, ABCC4 / RFU, LOC101060439 /// RAP1B / Fold change vs veh, LOC101060439 /// RAP1B / RFU, RFX7 / Fold change vs veh, RFX7 / RFU, GTPBP10 / Fold change vs veh, GTPBP10 / RFU, CNEP1R1 / Fold change vs veh, CNEP1R1 / RFU, BIVM-ERCC5 /// ERCC5 / Fold change vs veh, BIVM-ERCC5 /// ERCC5 / RFU, ILF3 / Fold change vs veh, ILF3 / RFU 11762660_at / Fold change /veh 11762660_at / RFU VCAN (11757783_s_at) / Fold change /veh VCAN (11757783_s_at) / RFU DDX43 (11728927_at) / Fold change /veh DDX43 (11728927_at) / RFU KRT8 (11758188_x_at) / Fold change /veh KRT8 (11758188_x_at) / RFU NKD1 (11759106_at) / Fold change /veh NKD1 (11759106_at) / RFU SRD5A1 (11742802_a_at) / Fold change /veh SRD5A1 (11742802_a_at) / RFU TPSAB1 /// TPSB2 (11721975_s_at) / Fold change /veh TPSAB1 /// TPSB2 (11721975_s_at) / RFU GSTM3 (11746129_a_at) / Fold change /veh GSTM3 (11746129_a_at) / RFU IL23R (11737362_x_at) / Fold change /veh IL23R (11737362_x_at) / RFU TMEM51 (11727254_a_at) / Fold change /veh TMEM51 (11727254_a_at) / RFU PIWIL2 (11732686_x_at) / Fold change /veh PIWIL2 (11732686_x_at) / RFU ORM1 (11744905_x_at) / Fold change /veh ORM1 (11744905_x_at) / RFU CCDC152 (11743942_at) / Fold change /veh CCDC152 (11743942_at) / RFU ECM1 (11717891_a_at) / Fold change /veh ECM1 (11717891_a_at) / RFU IL23R (11748794_a_at) / Fold change /veh IL23R (11748794_a_at) / RFU TNFAIP8L3 (11732012_x_at) / Fold change /veh TNFAIP8L3 (11732012_x_at) / RFU MBOAT4 (11741988_at) / Fold change /veh MBOAT4 (11741988_at) / RFU 11764193_at / Fold change /veh 11764193_at / RFU TMEM53 (11763286_at) / Fold change /veh TMEM53 (11763286_at) / RFU MAGEB2 (11727129_at) / Fold change /veh MAGEB2 (11727129_at) / RFU TMEM200A (11744735_a_at) / Fold change /veh TMEM200A (11744735_a_at) / RFU CCDC152 (11751479_a_at) / Fold change /veh CCDC152 (11751479_a_at) / RFU FAM211A (11726209_a_at) / Fold change /veh FAM211A (11726209_a_at) / RFU RGS16 (11746705_a_at) / Fold change /veh RGS16 (11746705_a_at) / RFU VCAN (11755009_s_at) / Fold change /veh VCAN (11755009_s_at) / RFU RHOB (11743442_s_at) / Fold change /veh RHOB (11743442_s_at) / RFU RGS16 (11720943_a_at) / Fold change /veh RGS16 (11720943_a_at) / RFU RGS16 (11720944_at) / Fold change /veh RGS16 (11720944_at) / RFU, VPS4B / Fold change vs veh, VPS4B / RFU, CREB1 / Fold change vs veh, CREB1 / RFU, DNAJC13 / Fold change vs veh, DNAJC13 / RFU, GNAQ / Fold change vs veh, GNAQ / RFU, CDK5R1 / Fold change vs veh, CDK5R1 / RFU, ZRANB3 / Fold change vs veh, ZRANB3 / RFU, CUL4A / Fold change vs veh, CUL4A / RFU, CCNY / Fold change vs veh, CCNY / RFU, UFL1 / Fold change vs veh, UFL1 / RFU, COG3 / Fold change vs veh, COG3 / RFU, DIAPH2 / Fold change vs veh, DIAPH2 / RFU, SKA2 / Fold change vs veh, SKA2 / RFU, AFF3 / Fold change vs veh, AFF3 / RFU, LMF1 / Fold change vs veh, LMF1 / RFU, IPO11 / Fold change vs veh, IPO11 / RFU, DFFB / Fold change vs veh, DFFB / RFU, FOXP1 / Fold change vs veh, FOXP1 / RFU, CARD8 / Fold change vs veh, CARD8 / RFU, STRN3 / Fold change vs veh, STRN3 / RFU, ADK / Fold change vs veh, ADK / RFU, RASSF2 / Fold change vs veh, RASSF2 / RFU, WIPF1 / Fold change vs veh, WIPF1 / RFU, LARP1B / Fold change vs veh, LARP1B / RFU, RASA1 / Fold change vs veh, RASA1 / RFU, RB1 / Fold change vs veh, RB1 / RFU, PPFIA1 / Fold change vs veh, PPFIA1 / RFU, MAT2A / Fold change vs veh, MAT2A / RFU, CCT5 / Fold change vs veh, CCT5 / RFU, WDR92 / Fold change vs veh, WDR92 / RFU, CUX1 / Fold change vs veh, CUX1 / RFU, TTC7A / Fold change vs veh, TTC7A / RFU, TMEM135 / Fold change vs veh, TMEM135 / RFU, DEPTOR / Fold change vs veh, DEPTOR / RFU, CPM / Fold change vs veh, CPM / RFU, DNAJB6 / Fold change vs veh, DNAJB6 / RFU, CACNA2D3 / Fold change vs veh, CACNA2D3 / RFU, DTX4 / Fold change vs veh, DTX4 / RFU, TFCP2 / Fold change vs veh, TFCP2 / RFU, GMCL1 /// GMCL1P1 / Fold change vs veh, GMCL1 /// GMCL1P1 / RFU, AEBP2 / Fold change vs veh, AEBP2 / RFU, SNHG1 /// SNORD22 /// SNORD25 /// SNORD26 /// SNORD27 /// SNORD28 /// SNORD29 /// SNORD31 / Fold change vs veh, SNHG1 /// SNORD22 /// SNORD25 /// SNORD26 /// SNORD27 /// SNORD28 /// SNORD29 /// SNORD31 / Fold change (Aza/veh), C12orf56 (ProbeSet 11735607_a_at) / Fold change (ACY-1035/veh), C12orf56 (ProbeSet 11735607_a_at) / Fold change (Aza/veh), FGFR1OP (ProbeSet 11751329_s_at) / Fold change (ACY-1035/veh), FGFR1OP (ProbeSet 11751329_s_at) / Fold change (Aza/veh), VPS36 (ProbeSet 11739960_a_at) / Fold change (ACY-1035/veh), VPS36 (ProbeSet 11739960_a_at) / RFU SYPL1 (11715823_x_at) / Fold change /veh SYPL1 (11715823_x_at) / RFU IGFBP7 (11715501_s_at) / Fold change /veh IGFBP7 (11715501_s_at) / RFU REEP3 (11722064_at) / Fold change /veh REEP3 (11722064_at) / RFU IGLL1 (11728026_x_at) / Fold change /veh IGLL1 (11728026_x_at): dose or concentration left out as unconfirmed",
  "details": "ProbeSet 11757113_a_at; LIST D",
  "data": [
    {"smiles": "Nc1ncn([C@@H]2O[C@H](CO)[C@@H](O)[C@H]2O)c(=O)n1", "note": "[azacitidine]", "values": [
      {"measurement": "RFU, SNHG1 /// SNORD22 /// SNORD25 /// SNORD26 /// SNORD27 /// SNORD28 /// SNORD29 /// SNORD31", "value": 298.12, "unit": "RFU"}
    ]}
  ]
}
